Assay results as given in PubChem BioAssay (NCI).
Where “and” joins values, the source holds several entries; their conditions need not be identical. Identical values can stand only once.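 Briefly, cells in 96-well plates were exposed to five compound concentrations for 48 h, and endpoints were estimated by linear interpolation. At the GI50, growth is halved. At the TGI there is no net growth.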

What was measured:
Assay in all cases: NCI anticancer screen, dose series, 48 h
MDA-MB-231 breast = tested on: MDA-MB-231 breast
OVCAR-5 ovarian = tested on: OVCAR-5 ovarian
MOLT-4 leukemia = tested on: MOLT-4 leukemia
HT29 colon = tested on: HT29 colon
ACHN renal = tested on: ACHN renal
RPMI-8226 leukemia = tested on: RPMI-8226 leukemia
A498 renal = tested on: A498 renal
TK-10 renal = tested on: TK-10 renal
EKVX NSCLC = tested on: EKVX NSCLC
K-562 leukemia = tested on: K-562 leukemia

Compound	TGI (MDA-MB-231 breast) [µM]	TGI (OVCAR-5 ovarian) [µM]	TGI (MOLT-4 leukemia) [µM]	TGI (HT29 colon) [µM]	TGI (ACHN renal) [µM]	TGI (RPMI-8226 leukemia) [µM]	TGI (A498 renal)	TGI (TK-10 renal) [µM]	TGI (EKVX NSCLC) [µM]	TGI (K-562 leukemia) [µM]	GI50 (MDA-MB-231 breast) [µM]	GI50 (MOLT-4 leukemia) [µM]	GI50 (HT29 colon) [µM]	GI50 (ACHN renal) [µM]	GI50 (A498 renal) [µM]	GI50 (TK-10 renal) [µM]	GI50 (EKVX NSCLC) [µM]	GI50 (K-562 leukemia) [µM]	GI50 (OVCAR-5 ovarian) [µM]	GI50 (RPMI-8226 leukemia) [µM]
O=C1CCCC1C(=O)Nc1ccc2ccccc2c1 (stereo not drawn)	> 100	> 100	> 100	> 100	> 100	> 100	> 100 µM	> 100	> 100	> 100										
C=C1C(=O)O[C@@H]2[C@@H]3O[C@@](C)(CC/C=C(\C)CCC[C@@H]2C)[C@H](O)C[C@@H]13	7.18	26.7	7.64	6.71	3.11	> 100	21.3 µM	3.46	20.3	9.58	2.39	2.75	2.41	1.59	8.87	1.89	5.56	3.1		
O=C(Nc1nc2ncn(CCOC(=O)c3ccccc3)c2c(=O)[nH]1)c1ccccc1	> 100	> 100	> 100	> 37.9	> 100	> 100	> 100 µM	> 100	> 100	> 100										
COc1cc(-c2cc(-c3ccc(N(C)C)cc3)nc(N3CCC(O)CC3)c2C#N)cc(OC)c1OC	3.55	> 36.3	10.7	1.43	> 100	1.74	19.1 µM	15.7	> 100	10.5	0.392	0.706	0.272	0.478	1.19	1.81	0.461	0.367	0.459	0.181
CCc1cc(C(N)=O)ccc1-n1nc(C(C)C)c2c(-n3cnc(-c4cnn(C)c4)c3)ccnc21	> 100	> 100	> 100	> 100	> 100	> 100	> 100 µM	> 100	> 100	> 100	3.25	0.955	0.474	1.62	4.99	1.23	16.3	0.867	15.4	3.76
COc1ccc(/C=C2/SC(=Nc3c(C)nn(-c4ccccc4)c3N)NC2=O)cc1	69.7	63.2	> 100	16.6	52.4	22.9	2.79 µM	57.3	40	> 100	9.5	8.4	3.8	5.29	1.07	7.12	4.18	3.02	10.9	3.9
CCN1CCC(C(=O)Nc2n[nH]c3nnc(-c4cccc(F)c4F)cc23)CC1	20.3	> 25	> 25	> 25	> 25	> 25	> 6.6 µM	> 25	> 25	> 25	5.51	12.1	5.02	9.68	0.543	11.3	16.9	8.39	13.9	> 25
CCCCc1ccc2nc(NC(=O)OC)[nH]c2c1	> 74.7	> 100	> 100		> 64.4		0.996 µM	29.9	> 100	> 100	0.291	0.0382	0.0377	0.077	0.04	0.325	0.855	0.0337	1.4	0.0331
CCc1nc(N)nc(N)c1-c1ccc(Cl)cc1	> 100	> 100	> 100	> 100	> 100	> 100	> 100 µM and 42.4 µM	> 100	> 100	> 26.5	34.2	25.6			24.1	88.3	5.7		31.7	56.6
